How the values were obtained:
[1] = target: T1, PIKFYVE (Homo sapiens, UniProt Q9Y2I7); test: Cell-based Pikfyve inhibition activity assay (EEA1 staining, mean vesicle size in BJ fibroblast cells); settings: Table 4, 4 hours treatment, 3 μM Apilimod = 100% inhibition
Summary of the method: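 BJ fibroblasts treated 4 h at 37° C with eleven 3-fold doses (0.03-3000 nM), then fixed and stained for EEA1. Confocal images (20×, 16 tiles/well) analysed for mean vesicle size. Normalised to 0.5% DMSO (0%) and 3 μM apilimod (100%); dose-response fitted with variable slope.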

[2] = target: T1, PIKFYVE; test: PIKFYVE assay (luciferase ADP-Glo kinase assay, Promega); type: biochemical
Summary of the method: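 ADP generated in the kinase reaction was detected by ADP-Glo luminescence (luciferase).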

T1 sequence (Q9Y2I7 whole entry): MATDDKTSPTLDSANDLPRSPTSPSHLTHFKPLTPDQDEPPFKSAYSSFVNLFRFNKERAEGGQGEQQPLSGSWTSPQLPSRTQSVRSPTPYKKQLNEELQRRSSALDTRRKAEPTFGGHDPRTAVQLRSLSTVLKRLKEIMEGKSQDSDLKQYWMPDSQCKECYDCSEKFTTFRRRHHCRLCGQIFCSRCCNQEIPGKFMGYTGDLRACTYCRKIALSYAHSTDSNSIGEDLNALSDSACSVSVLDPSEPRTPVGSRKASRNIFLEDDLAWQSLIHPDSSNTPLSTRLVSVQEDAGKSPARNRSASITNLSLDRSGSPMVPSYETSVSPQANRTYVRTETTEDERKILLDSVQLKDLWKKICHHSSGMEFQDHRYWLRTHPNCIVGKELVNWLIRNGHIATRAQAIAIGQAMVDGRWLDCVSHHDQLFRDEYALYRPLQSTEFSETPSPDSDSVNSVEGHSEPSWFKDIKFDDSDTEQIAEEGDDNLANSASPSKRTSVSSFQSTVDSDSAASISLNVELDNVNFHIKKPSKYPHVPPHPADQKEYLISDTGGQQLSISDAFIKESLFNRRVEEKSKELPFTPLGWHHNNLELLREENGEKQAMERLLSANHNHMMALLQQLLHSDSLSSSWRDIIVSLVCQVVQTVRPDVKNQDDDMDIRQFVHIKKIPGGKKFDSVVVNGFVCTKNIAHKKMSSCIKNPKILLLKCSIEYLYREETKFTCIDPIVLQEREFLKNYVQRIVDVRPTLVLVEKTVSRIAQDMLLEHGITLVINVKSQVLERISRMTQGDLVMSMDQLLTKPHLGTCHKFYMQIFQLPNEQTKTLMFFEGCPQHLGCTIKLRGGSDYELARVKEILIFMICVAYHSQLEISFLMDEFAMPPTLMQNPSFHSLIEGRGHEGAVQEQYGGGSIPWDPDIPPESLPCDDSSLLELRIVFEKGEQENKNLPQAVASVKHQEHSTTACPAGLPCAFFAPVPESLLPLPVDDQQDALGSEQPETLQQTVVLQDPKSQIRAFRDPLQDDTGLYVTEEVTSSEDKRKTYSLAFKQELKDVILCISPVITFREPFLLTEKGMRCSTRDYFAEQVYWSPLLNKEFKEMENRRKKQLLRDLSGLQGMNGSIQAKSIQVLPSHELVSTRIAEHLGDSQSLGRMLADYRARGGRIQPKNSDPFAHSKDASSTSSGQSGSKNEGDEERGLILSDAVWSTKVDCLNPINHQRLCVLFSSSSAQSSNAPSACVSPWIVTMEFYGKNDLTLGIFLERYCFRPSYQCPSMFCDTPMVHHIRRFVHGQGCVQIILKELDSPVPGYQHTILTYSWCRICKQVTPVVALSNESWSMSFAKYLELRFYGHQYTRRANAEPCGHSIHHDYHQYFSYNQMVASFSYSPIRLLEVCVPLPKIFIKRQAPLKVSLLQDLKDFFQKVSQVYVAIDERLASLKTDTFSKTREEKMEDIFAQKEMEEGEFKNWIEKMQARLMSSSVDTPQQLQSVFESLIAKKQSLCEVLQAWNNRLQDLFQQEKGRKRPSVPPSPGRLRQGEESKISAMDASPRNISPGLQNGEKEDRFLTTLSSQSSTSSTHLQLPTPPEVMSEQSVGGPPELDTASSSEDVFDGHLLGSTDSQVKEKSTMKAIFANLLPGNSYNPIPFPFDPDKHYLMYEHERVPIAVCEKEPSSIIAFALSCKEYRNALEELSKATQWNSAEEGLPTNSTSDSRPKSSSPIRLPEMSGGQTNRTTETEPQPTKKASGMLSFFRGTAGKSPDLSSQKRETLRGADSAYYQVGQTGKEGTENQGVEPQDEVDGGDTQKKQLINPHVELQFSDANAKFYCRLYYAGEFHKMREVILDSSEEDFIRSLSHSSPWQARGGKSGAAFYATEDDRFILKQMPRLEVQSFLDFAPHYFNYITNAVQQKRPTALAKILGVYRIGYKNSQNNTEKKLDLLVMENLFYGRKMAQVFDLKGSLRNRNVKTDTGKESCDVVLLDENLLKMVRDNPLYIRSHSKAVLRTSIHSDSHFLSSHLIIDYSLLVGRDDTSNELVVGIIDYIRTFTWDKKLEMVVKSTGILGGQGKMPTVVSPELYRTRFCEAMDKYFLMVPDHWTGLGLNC

SMILES	EC50 [1] [nM]	IC50 ([2]; Table 3) [nM]	IC50 ([2]; Table 2) [nM]
CC[C@H](OC)c1nc(N2CCOCC2)cc(-n2ccc(-c3cccc(C)c3)n2)n1 (single isomer, unassigned) [Compound 323]	500 to 5000	10 to 100	–
CNc1nc(N2CCOCC2)cc(-n2nc(-c3ccccc3)cc2C)n1 [Compound 85]	500 to 5000	–	101 to 1000
Cc1cccc(-c2ccn(-c3cc(N4CCOCC4)nc(CCc4ccnn4C)n3)n2)c1 [Compound 338, 4-(2-(2-(1-methyl-1H-pyrazol-5-yl)ethyl)-6-(3-(m-tolyl)-1H-pyrazol-1-yl)pyrimidin-4-yl)morpholine]	> 5000	3 to 10	–
CO[C@H](CO)c1nc(N2CCOCC2)cc(-n2ccc(-c3cccc4ncsc34)n2)n1 [Compound 274, (S)-2-(4-(3-(benzo[d]thiazol-7-yl)-1H-pyrazol-1-yl)-6-morpholinopyrimidin-2-yl)-2-methoxyethan-1-ol]	> 5000	100 to 5000	–
CO[C@@H](CO)c1nc(N2CCOCC2)cc(-n2ccc(-c3cccc4[nH]ccc34)n2)n1 [Compound 269, (R)-2-(4-(3-(1H-indol-4-yl)-1H-pyrazol-1-yl)-6-morpholinopyrimidin-2-yl)-2-methoxyethan-1-ol]	500 to 5000	10 to 100	–
COC(Cc1ccccc1)c1nc(N2CCOCC2)cc(-n2ccc(-c3ccccc3)n2)n1 (centres unmarked) [Compound 177, 4-(2-(1-methoxy-2-phenylethyl)-6-(3-phenyl-1H-pyrazol-1-yl)pyrimidin-4-yl)morpholine]	500 to 5000	10 to 100	–
CO[C@H](CO)c1nc(N2CCO[C@H](C)C2)cc(-n2ccc(-c3cccc(C)c3)n2)n1 (single isomer, unassigned) [Compound 307]	> 5000	10 to 100	–
CO[C@@H](CO)c1nc(N2CCOCC2)cc(-n2ccc(-c3cccc4ncsc34)n2)n1 [Compound 275, (R)-2-(4-(3-(benzo[d]thiazol-7-yl)-1H-pyrazol-1-yl)-6-morpholinopyrimidin-2-yl)-2-methoxyethan-1-ol]	> 5000	100 to 5000	–
Cc1cccc(-c2cc(CN(C)C)n(-c3cc(N4CCOCC4)nc(OCC4(C)COC4)n3)n2)c1 [Compound 206, N,N-dimethyl-1-(1-(2-((3-methyloxetan-3-yl)methoxy)-6-morpholinopyrimidin-4-yl)-3-(m-tolyl)-1H-pyrazol-5-yl)methanamine]	500 to 5000	3 to 10	–
Cc1cccc(-c2ccn(-c3cc(N4CCOCC4)nc([C@@H]4COCCO4)n3)n2)c1 (single isomer, unassigned) [Compound 324]	500 to 5000	10 to 100	–
Cc1cccc(-c2ccn(-c3cc(N4CCOCC4)nc([C@H]4CCCO4)n3)n2)c1 (single isomer, unassigned) [Compound 327]	500 to 5000	3 to 10	–
Cc1cc(-c2ccccc2)nn1-c1cc(N2CCOCC2)nc(N)n1 [Compound 202, 4-(5-methyl-3-phenyl-1H-pyrazol-1-yl)-6-morpholinopyrimidin-2-amine]	500 to 5000	100 to 5000	–
Cn1cc(CCOc2nc(N3CCOCC3)cc(-n3ccc(COc4ccccc4)n3)n2)cn1 [Compound 128, 4-(2-(2-(1-methyl-1H-pyrazol-4-yl)ethoxy)-6-(3-(phenoxymethyl)-1H-pyrazol-1-yl)pyrimidin-4-yl)morpholine]	500 to 5000	3 to 10	–
Cc1cccc(-c2ccn(-c3cc(N4CCOCC4)c4[nH]ccc4n3)n2)c1 [Compound 241, 4-(5-(3-(m-tolyl)-1H-pyrazol-1-yl)-1H-pyrrolo[3,2-b]pyridin-7-yl)morpholine]	500 to 5000	3 to 10	–
COC(C)(CO)c1nc(N2CCOCC2)cc(-n2ccc(-c3cccc(C)c3)n2)n1 (centres unmarked) [Compound 226, 2-methoxy-2-(4-morpholino-6-(3-(m-tolyl)-1H-pyrazol-1-yl)pyrimidin-2-yl)propan-1-ol]	500 to 5000	3 to 10	–
Cn1nccc1CC(O)c1nc(N2CCOCC2)cc(-n2ccc(-c3ccccc3)n2)n1 (centres unmarked) [Compound 201, 2-(1-methyl-1H-pyrazol-5-yl)-1-(4-morpholino-6-(3-phenyl-1H-pyrazol-1-yl)pyrimidin-2-yl)ethan-1-ol]	500 to 5000	10 to 100	–
Cn1cc(CCOc2nccc(N3CCOCC3)n2)cn1 [Compound 173, 4-(2-(2-(1-methyl-1H-pyrazol-4-yl)ethoxy)pyrimidin-4-yl)morpholine]	> 5000	> 5000	–
Cc1cccc(-c2ccn(-c3cc(N4CCOCC4)nc(OC(CN(C)C)c4ccccc4)n3)n2)c1 (centres unmarked) [Compound 113, N,N-dimethyl-2-((4-morpholino-6-(3-(m-tolyl)-1H-pyrazol-1-yl)pyrimidin-2-yl)oxy)-2-phenylethan-1-amine]	100 to 500	< 3	–
Cc1cccc(-c2ccn(-c3cc(N4CCOCC4)nc([C@H]4COCCO4)n3)n2)c1 (single isomer, unassigned) [Compound 325]	500 to 5000	10 to 100	–
Cc1cccc(-c2ccn(-c3cc(N4CCOCC4)nc(OCC4CC4)n3)n2)c1 [Compound 101, 4-(2-(cyclopropyl-methoxy)-6-(3-(m-tolyl)-1H-pyrazol-1-yl)pyrimidin-4-yl)morpholine]	100 to 500	3 to 10	–

Other lines, results leading:

EC50 [1] [nM]	IC50 ([2]; Table 3) [nM]	IC50 ([2]; Table 2) [nM]	SMILES
< 20	< 3	–	Cc1cccc(-c2ccn(-c3cc(N4CCOCC4)nc(OCCc4cn[nH]c4)n3)n2)c1 [Compound 214, 4-(2-(2-(1H-pyrazol-4-yl)ethoxy)-6-(3-(m-tolyl)-1H-pyrazol-1-yl)pyrimidin-4-yl)morpholine]
20 to 100	< 3	–	Cn1cc(CCOc2nc(N3CCOCC3)cc(-n3ccc(-c4cccc(F)c4)n3)n2)cn1 [Compound 195, 4-(6-(3-(3-fluorophenyl)-1H-pyrazol-1-yl)-2-(2-(1-methyl-1H-pyrazol-4-yl)ethoxy)pyrimidin-4-yl)morpholine]
100 to 500	3 to 10	–	Cc1cccc(-c2ccn(-c3cc(N4CCOCC4)nc(CCc4cccnn4)n3)n2)c1 [Compound 317, 4-(2-(2-(pyridazin-3-yl)ethyl)-6-(3-(m-tolyl)-1H-pyrazol-1-yl)pyrimidin-4-yl)morpholine]
100 to 500	3 to 10	–	Cc1cccc(-c2ccn(-c3cc(N4CCOCC4)nc(COCc4cn(C)cn4)n3)n2)c1 [Compound 297, 4-(2-(((1-methyl-1H-imidazol-4-yl)methoxy)methyl)-6-(3-(m-tolyl)-1H-pyrazol-1-yl)pyrimidin-4-yl)morpholine]
< 20	–	< 5	Cc1cccc(-c2ccn(-c3cc(N4CCOCC4)nc(OCCc4cnn(C)c4)n3)n2)c1 [Compound 56, 4-(2-(2-(1-methyl-1H-pyrazol-4-yl)ethoxy)-6-(3-(m-tolyl)-1H-pyrazol-1-yl)pyrimidin-4-yl)morpholine]
100 to 500	10 to 100	–	Cc1cccc(-c2ccn(-c3cc(N4CCOCC4)nc(OCCN)n3)n2)c1 [Compound 209, 2-((4-morpholino-6-(3-(m-tolyl)-1H-pyrazol-1-yl)pyrimidin-2-yl)oxy)ethan-1-amine]
100 to 500	–	5 to 100	Cc1cccc(-c2ccn(-c3cc(N4CCOCC4)nc(N4CCCC4=O)n3)n2)c1 [Compound 61, 1-(4-morpholino-6-(3-(m-tolyl)-1H-pyrazol-1-yl)pyrimidin-2-yl)pyrrolidin-2-one]
100 to 500	3 to 10	–	CO[C@H](CO)c1nc(N2CCOCC2)cc(-n2nc(-c3cccc(C)c3)cc2C)n1 (single isomer, unassigned) [Compound 224]
100 to 500	3 to 10	–	CCO[C@@H](CO)c1nc(N2CCOCC2)cc(-n2ccc(-c3cccc(C)c3)n2)n1 (single isomer, unassigned) [Compound 312]
100 to 500	–	5 to 100	CN(C)Cc1cc(-c2ccccc2)nn1-c1cc(N2CCOCC2)nc(OCCc2cnn(C)c2)n1 [Compound 75, N,N-dimethyl-1-(1-(2-(2-(1-methyl-1H-pyrazol-4-yl)ethoxy)-6-morpholinopyrimidin-4-yl)-3-phenyl-1H-pyrazol-5-yl)methanamine]
100 to 500	10 to 100	–	OC(c1ccccc1)c1nc(N2CCOCC2)cc(-n2ccc(-c3ccccc3)n2)n1 (centres unmarked) [Compound 183, (4-morpholino-6-(3-phenyl-1H-pyrazol-1-yl)pyrimidin-2-yl)(phenyl)methanol]
< 20	< 3	–	CN(C)CCc1cc(-c2ccccc2)nn1-c1cc(N2CCOCC2)nc(OCCc2cnn(C)c2)n1 [Compound 220, N,N-dimethyl-2-(1-(2-(2-(1-methyl-1H-pyrazol-4-yl)ethoxy)-6-morpholinopyrimidin-4-yl)-3-phenyl-1H-pyrazol-5-yl)ethan-1-amine]
100 to 500	3 to 10	–	Cc1cccc(-c2ccn(-c3cc(N4CCOCC4)nc(-n4cnc(CCO)c4)n3)n2)c1 [Compound 339, 2-(1-(4-morpholino-6-(3-(m-tolyl)-1H-pyrazol-1-yl)pyrimidin-2-yl)-1H-imidazol-4-yl)ethan-1-ol]
20 to 100	< 3	–	Cc1cccc(-c2ccn(-c3cc(N4CCOCC4)nc(NC(=O)CCc4cnn(C)c4)n3)n2)c1 [Compound 187]
100 to 500	10 to 100	–	COc1cccc(-c2ccn(-c3cc(N4CCOCC4)nc([C@H](CO)OC)n3)n2)c1 [Compound 263, (R)-2-methoxy-2-(4-(3-(3-methoxyphenyl)-1H-pyrazol-1-yl)-6-morpholinopyrimidin-2-yl)ethan-1-ol]
20 to 100	< 3	–	Cc1cccc(-c2ccn(-c3cc(N4CCOCC4)nc(OCCCC#N)n3)n2)c1 [Compound 175, 4-((4-morpholino-6-(3-(m-tolyl)-1H-pyrazol-1-yl)pyrimidin-2-yl)oxy)butanenitrile]
100 to 500	< 3	–	CO[C@H](CO)c1nc(N2CCOCC2)cc(-n2ccc(-c3csc4ccccc34)n2)n1 (single isomer, unassigned) [Compound 258]

Source: patent US20230135152A1 (ACURASTEM INCORPORATED, priority 2020, published 2023)
